Reference: patent US5541174A, “Analgesic method” (priority 1995, dated 1996)
“And” between values parts separate entries of the source, which are not always exact repeats. Equal entries are not always repeated.

Key:
[1] = test system: acetic acid-induced writhing mouse pain model; assay: Comparison/potentiation of analgesic activity with morphine in the acetic acid-induced writhing mouse pain model; type: in vivo
Method: (§1) Groups of 10 ICR male mice (Taisho Pharmaceutical Co. Research Center) were used to study each dose of every compound. Ligands or complexes were administered orally or subcutaneously in 0.1 ml of vehicle per 10 g of body weight 30 minutes before the intrapertioneal injection of 0.1 ml of 0.7% acetic acid solution per 10 g of body weight. Number of writhes were counted for each mouse during a period of 10 to 20 min after acetic acid injection. Inhibitory percent was calculated by comparison with the number of writhes in the non-treated control, vehicle-treated, and acetic acid-injected group. The ED50 value and 95% confidence limits were calculated from the inhibitory percent by the method of Litchfield and Wilcoxon.

[2] = test system: acetic acid induced writhing in mice; assay: Acetic acid-induced writhing test; type: in vivo, ICR male mice
Method: 1. Acetic acid-induced writhing test as described in Koster et al., "Acetic Acid for Analgesic Screening", Fed. Proc. 18, 412 (1959), incorporated by reference herein; and
as §1

[3] = test system: adjuvant-induced arthritic pain in rats; assay: Adjuvant-induced arthritic pain; type: in vivo, male Sprague-Dawley rats
Excerpt: 2. Adjuvant-induced arthritic pain as described in:
S. KUZNA, et al., Measurement of Arthritic Pain and Effects of Analgesics in the Adjuvant-Treated Rat, Chem. Pharm. Bull. 23, 1184-1191 (1975);
C. A. WINTER, et al., Analgesic Activity of Diflunisal in Rats with Hyperalygesia Induced by Freud's Adjuvant, J. Pharmacol. Exp. Ther. 211, 678-685 (1979; and
M. E. ROSENTHALE, et al., Adjuvant Arthritis:Immuno-Pathological and Hyperalgesic Features, Fed. Proced. 41, 2577-2582 (1982),
incorporated by reference herein.
Groups of 5-6 male Sprague-Dawley rats (Taisho Pharmaceutical Co. Research Center) weighing 140 to 160 g at the time of Mycobacterium butyricum (adjuvant, Difco Laboratories, Detroit, Mich.) injection were used to study each compound. Rats were injected intradermally at the base of the tail with 0.1 ml of a parafin oil suspension of 0.5 mg of heat-killed mycobacterium. Fifteen to 19 days later, drugs were administered orally or subcutaneously in 0.5 ml of vehicle per 100 g of body weight to rats showing the nociceptive reaction, vocalization following a gentle flexion of the tarsal-tibial joint of the inflamed hind-paw. Vocalization responses were measured every hour for 5 hours. […] The ED50 value and 95% confidence limits were calculated from the positive rate for non-treated controls, vehicle-treated adjuvant arthritic rats, by the method of Litchfield and Wilcoxin.
(§2) All drugs were suspended with 5% gum arabic in saline solution or wetted with enough propylene glycol to give a final concentration of 4% propylene glycol and the wetted solid suspended in 1.4% polyvinyl alcohol in saline.

[4] = test system: acetic acid-induced writhing mouse pain model; assay: Naloxone reversal of analgesia in the acetic acid-induced writhing mouse pain model; type: in vivo; settings: for reduction of induced analgesia by Naloxone: Table VIII; for ED50: p.o.
Method: as §1, §2
NaloxoneHCL (3 umol/kg. i.v., in saline, Endo Lab.) was administered 5
min. before acetic acid injection.

[5] = test system: acetic acid-induced writhing mouse pain model; assay: Measurement of time of peak activity in the acetic acid-induced writhing mouse pain model; type: in vivo; settings: for duration of analgesic effect: Table VII
Method: as §1, with “Ligands or complexes were administered orally or subcutaneously in 0.1 ml of vehicle per 10 g of body weight 30 minutes before the intrapertioneal injection of 0.1 ml of 0.7% acetic acid solution per 10 g of body weight.” left out
as §2

[6] = oral, 5% gum arabic, 0.006 mmol/kg
[7] = oral, 5% gum arabic, 0.013 mmol/kg

COc1ccc2c(c1)c(CC(=O)[O-])c(C)n2C(=O)c1ccc(Cl)cc1.COc1ccc2c(c1)c(CC(=O)[O-])c(C)n2C(=O)c1ccc(Cl)cc1.COc1ccc2c(c1)c(CC(=O)[O-])c(C)n2C(=O)c1ccc(Cl)cc1.COc1ccc2c(c1)c(CC(=O)[O-])c(C)n2C(=O)c1ccc(Cl)cc1.[Cu+2].[Cu+2] [Cu(II)2 (indomethacin)4]
% Inhibition ([1]; 0.5 umol/kg, orally): 21%
% Inhibition ([1]; 1.0 umol/kg, orally): 46%
% Inhibition ([1]; 2.0 umol/kg, orally): 54%
potentiation of opioid analgesia ([1]; Table IX): potentiation of opioid analgesia
ED50 ([1]; complex alone, orally): 1.5 µmol/kg
ED50 ([2]; oral, 5% gum arabic in saline): 0.012 mmol/kg
analgesic effectiveness versus parent ligand ([2]; oral, 5% gum arabic in saline): more effective than their parent ligands
% Inhibition [2, 6]: 33%
% Inhibition [2, 7]: 50%
% Inhibition ([2]; oral, 5% gum arabic, 0.025 mmol/kg): 73%
analgesic effectiveness versus parent ligand ([2]; oral, PG-PVA): more effective than their parent ligands
ED50 ([2]; oral, PG-PVA in saline): 0.002 mmol/kg
% Inhibition ([2]; oral, PG-PVA, 0.001 mmol/kg): 38%
% Inhibition ([2]; oral, PG-PVA, 0.002 mmol/kg): 53%
% Inhibition ([2]; oral, PG-PVA, 0.004 mmol/kg): 75%
ED50 ([2]; s.c., PG-PVA in saline): 0.002 mmol/kg and 0.003 mmol/kg
% Inhibition ([2]; s.c., PG-PVA, 0.002 mmol/kg): 34%
% Inhibition ([2]; s.c., PG-PVA, 0.003 mmol/kg): 53%
% Inhibition ([2]; s.c., PG-PVA, 0.006 mmol/kg): 70%
ED50 ([3]; oral, 5% gum arabic in saline): 0.007 mmol/kg
% Inhibition ([3]; oral, 5% gum arabic, 0.003 mmol/kg): 27%
% Inhibition [3, 6]: 47%
% Inhibition [3, 7]: 70%
ED50 ([3]; oral, PG-PVA in saline): 0.002 mmol/kg
% Inhibition ([3]; oral, PG-PVA, 0.001 mmol/kg): 20%
% Inhibition ([3]; oral, PG-PVA, 0.002 mmol/kg): 40%
% Inhibition ([3]; oral, PG-PVA, 0.003 mmol/kg): 87%
ED50 ([3]; s.c., PG-PVA in saline): 0.002 mmol/kg
% Inhibition ([3]; s.c., PG-PVA, 0.001 mmol/kg): 17%
% Inhibition ([3]; s.c., PG-PVA, 0.002 mmol/kg): 43%
% Inhibition ([3]; s.c., PG-PVA, 0.003 mmol/kg): 60%
% Inhibition ([4]; 0.5 umol/kg p.o., with Naloxone HCl 3 umol/kg i.v.): 19%
% Inhibition ([4]; 0.5 umol/kg p.o., without naloxone): 43%
% Inhibition ([4]; 1 umol/kg p.o., with Naloxone HCl 3 umol/kg i.v.): 52%
% Inhibition ([4]; 1 umol/kg p.o., without naloxone): 62%
% Inhibition ([4]; 2 umol/kg p.o., with Naloxone HCl 3 umol/kg i.v.): 69%
% Inhibition ([4]; 2 umol/kg p.o., without naloxone): 76%
reduction of induced analgesia by Naloxone [4]: reduction
ED50 ([4]; with Naloxone HCl 3 umol/kg i.v.): 1.1 µmol/kg
ED50 ([4]; without naloxone): 0.6 µmol/kg
Inhibition % ([5]; 2 umol/kg p.o., 30 min): 54%
Inhibition % ([5]; 2 umol/kg p.o., 60 min): 49%
Inhibition % ([5]; 2 umol/kg p.o., 120 min): 43%
Inhibition % ([5]; 2 umol/kg p.o., 180 min): 68%
Inhibition % ([5]; 2 umol/kg p.o., 240 min): 33%
duration of analgesic effect [5]: prolonged duration of analgesic effect

CCN(CC)C(=S)[S-].CCN(CC)C(=S)[S-].[Cu+2] [Cu(II)(DDC)2, Bisdiethyldithiocarbamatocopper(II)]
% Inhibition ([4]; 555 umol/kg s.c., with Naloxone HCl 3 umol/kg i.v.): 29%
% Inhibition ([4]; 555 umol/kg s.c., without naloxone): 45%
reduction of induced analgesia by Naloxone [4]: reduction
Inhibition % ([5]; 555 umol/kg s.c., 30 min): 29%
Inhibition % ([5]; 555 umol/kg s.c., 60 min): 42%
Inhibition % ([5]; 555 umol/kg s.c., 120 min): 45%
Inhibition % ([5]; 555 umol/kg s.c., 180 min): 29%
duration of analgesic effect [5]: prolonged duration of analgesic effect

CCN(CC)C(=S)[S-].[Na+] [NaDDC, sodium diethyldithiocarbamate, reference compound]
Inhibition % ([5]; 584 umol/kg s.c., 30 min): 48%
Inhibition % ([5]; 584 umol/kg s.c., 60 min): 53%
Inhibition % ([5]; 584 umol/kg s.c., 120 min): 20%
Inhibition % ([5]; 584 umol/kg s.c., 180 min): 18%
